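Five compound concentrations were applied to cells in 96-well plates for 48 hours; endpoints were derived by simple linear interpolation of the resulting dose-response curve. The concentration for 50% growth inhibition is given as GI50.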 Calls of active or inactive are those of the source. No stated cut-off is given here; in the data, active = GI50 up to about 1.1 µM and inactive = higher.

Among the test systems are HT-29; NCI-H460; DLD-1; CCRF-CEM; OVCAR-4; OVCAR-5; ACHN; K562; SW-620; TK-10; RPMI-8226; A498; HOP-92; EKVX; UO-31; HCT-15; U-251; SK-MEL-2.
What all share (assay): NCI tumour cell line growth inhibition, 48 h

For the molecule `O=C(Nc1nc2ncn(CCO)c2c(=S)[nH]1)c1ccccc1`, the GI50 in the assay on HT-29, in the assay on NCI-H460, with DLD-1, with CCRF-CEM, in the assay with OVCAR-4 and with OVCAR-5 was > 100 µM (inactive) each time. For the same molecule, the GI50 with ACHN, in the assay with K562, in the assay with SW-620, with TK-10, with RPMI-8226 and in the assay on A498 was > 100 µM (inactive) throughout. For the same molecule, the GI50 was > 100 µM (inactive) with HOP-92; > 100 µM (inactive) with EKVX; > 100 µM (inactive) in the assay on UO-31; > 100 µM in the assay with HCT-15; > 100 µM (inactive) in the assay on U-251; > 100 µM (inactive) in the assay on SK-MEL-2.
For `COc1cc2c(c(OC)c1OC)-c1ccc(SC)c(=O)cc1[C@@H](NCc1ccc(F)cc1)CC2`, the GI50 in the assay with HT-29 is < 0.0075 µM (active); with NCI-H460, < 0.0075 µM (active); in the assay with DLD-1 it was < 0.0075 µM (active); in the assay with CCRF-CEM, < 0.0075 µM (active); in the assay on OVCAR-4, 11.6 µM (inactive); with OVCAR-5, 2.54 µM (inactive). Moreover, the GI50 was < 0.0075 µM (active) with ACHN; < 0.0075 µM (active) in the assay with K562; < 0.0075 µM (active) in the assay with SW-620; 12.3 µM (inactive) in the assay with TK-10; < 0.0075 µM (active) in the assay with RPMI-8226; < 0.0075 µM (active) in the assay on A498. Besides, the GI50 with HOP-92 was < 0.0075 µM (active); in the assay with EKVX, 0.0693 µM (active); in the assay with UO-31 it was 1.03 µM (active); in the assay with HCT-15 it was < 0.0075 µM; with U-251, < 0.0075 µM (active); with SK-MEL-2 it was < 0.0075 µM (active).
In the case of `Cc1ccc(C2=NO[C@@H]3C(=O)N(c4ccc(Cc5ccc(N6C(=O)[C@H]7C(c8ccc(C)cc8)=NO[C@H]7C6=O)cc5)cc4)C(=O)[C@H]23)cc1`, the GI50 in the assay with HT-29, in the assay on NCI-H460, in the assay with DLD-1, in the assay with CCRF-CEM, with OVCAR-4 and in the assay on OVCAR-5 was > 100 µM (inactive) throughout. For the same molecule, the GI50 in the assay with ACHN, with K562, in the assay on SW-620, in the assay on TK-10, in the assay on RPMI-8226 and in the assay on A498 was > 100 µM (inactive) each time. Also, the GI50 with HOP-92 is > 100 µM (inactive); in the assay with EKVX, > 100 µM (inactive); in the assay with UO-31, > 100 µM (inactive); with HCT-15, > 100 µM; with U-251 it was > 100 µM (inactive); in the assay on SK-MEL-2, > 100 µM (inactive).
As to `Cc1ccccc1Cn1nc2ccccc2cc1=O`, the GI50 in the assay on HT-29, in the assay on NCI-H460, with DLD-1, in the assay with CCRF-CEM, in the assay with OVCAR-4 and with OVCAR-5 was > 100 µM (inactive) in each case. The GI50 with ACHN, in the assay on K562, in the assay on SW-620, in the assay on TK-10, with RPMI-8226 and in the assay with A498 was > 100 µM (inactive) each time. In addition, the GI50 was > 100 µM (inactive) in the assay on HOP-92; > 100 µM (inactive) in the assay on EKVX; > 100 µM (inactive) with UO-31; > 100 µM with HCT-15; > 100 µM (inactive) in the assay with U-251; > 100 µM (inactive) in the assay with SK-MEL-2.
Regarding `COC1[C@H](NC(=O)OC(C)(C)C)C(=O)N1Cc1ccccc1` (some centres not stated), the GI50 with HT-29, with NCI-H460, in the assay on DLD-1, with CCRF-CEM, in the assay with OVCAR-4 and in the assay on OVCAR-5 was > 100 µM (inactive) each time. Moreover, the GI50 in the assay with ACHN was > 100 µM (inactive); with K562 it was > 100 µM (inactive); with SW-620, > 100 µM (inactive); with TK-10 it was > 100 µM (inactive); in the assay on RPMI-8226, > 100 µM (inactive); with A498 it was 9.53 µM (inactive). For the same molecule, the GI50 is 74.6 µM (inactive) in the assay on HOP-92; > 100 µM (inactive) in the assay on EKVX; > 100 µM (inactive) in the assay with UO-31; > 100 µM in the assay with HCT-15; > 100 µM (inactive) in the assay with U-251; > 100 µM (inactive) in the assay with SK-MEL-2.
On to `O=C1C/C(Br)=C\c2ccccc2-c2ccccc21`, for which the GI50 is 2.07 µM (inactive) in the assay with HT-29; 2.86 µM (inactive) with NCI-H460; 1.11 µM (active) in the assay with DLD-1; 1.06 µM (active) in the assay on CCRF-CEM; 2.53 µM (inactive) in the assay on OVCAR-4; 2.69 µM (inactive) with OVCAR-5. The GI50 is 1.91 µM (inactive) in the assay with ACHN; 1.06 µM (active) in the assay on K562; 1.39 µM (inactive) in the assay on SW-620; 4.78 µM (inactive) with TK-10; 1.52 µM (inactive) in the assay on RPMI-8226; 8.51 µM (inactive) in the assay with A498. The GI50 with HOP-92 was 1.85 µM (inactive); in the assay with EKVX, 9.82 µM (inactive); in the assay on UO-31, 2.4 µM (inactive); with HCT-15 it was 1.56 µM; with U-251, 2.51 µM (inactive); with SK-MEL-2, 2.7 µM (inactive).
Consider `O=C1C=C(O)C(=Cc2c(O)cc(O)cc2O)C(O)=C1`, for which the GI50 in the assay on HT-29, with NCI-H460, with DLD-1, with CCRF-CEM, in the assay with OVCAR-4 and in the assay on OVCAR-5 was > 100 µM (inactive) throughout. Further, the GI50 in the assay on K562, in the assay on SW-620, with TK-10, with RPMI-8226, with A498 and in the assay with HOP-92 was > 100 µM (inactive) each time. Further, the GI50 is > 100 µM (inactive) in the assay on EKVX; > 100 µM (inactive) in the assay on UO-31; > 100 µM in the assay with HCT-15; > 100 µM (inactive) in the assay on U-251; > 100 µM (inactive) with SK-MEL-2.
With `O=C(CCC(=O)Nc1ccc(Cl)cc1)CC(=O)c1ccc2ccccc2c1`, the GI50 in the assay with HT-29, in the assay on NCI-H460, in the assay on DLD-1, with CCRF-CEM, in the assay on OVCAR-4 and in the assay on OVCAR-5 was > 100 µM (inactive) in each case. For the same molecule, the GI50 with ACHN, in the assay on K562, in the assay with SW-620, in the assay with TK-10, in the assay with RPMI-8226 and with A498 was > 100 µM (inactive) in each case. In addition, the GI50 in the assay with HOP-92 was > 100 µM (inactive); in the assay with EKVX, > 100 µM (inactive); in the assay on UO-31 it was > 100 µM (inactive); in the assay with HCT-15, > 100 µM; in the assay on U-251, > 100 µM (inactive); in the assay on SK-MEL-2 it was > 100 µM (inactive).
With `Cc1ccc(NC(=O)C(=O)C(C2C(C)CC(=O)C2CC(=O)O)[N+](=O)[O-])cc1` (configuration not stated), the GI50 in the assay with HT-29, in the assay on NCI-H460, in the assay on DLD-1, with CCRF-CEM, in the assay on OVCAR-4 and in the assay on OVCAR-5 was > 100 µM (inactive) in each case. For the same molecule, the GI50 in the assay on ACHN, in the assay with K562, in the assay with SW-620, in the assay on TK-10, with RPMI-8226 and in the assay with A498 was > 100 µM (inactive) throughout. The GI50 in the assay on HOP-92 is > 100 µM (inactive); in the assay with EKVX it was > 100 µM (inactive); in the assay on UO-31, > 100 µM (inactive); in the assay on HCT-15, > 100 µM; in the assay on U-251, > 100 µM (inactive); with SK-MEL-2, > 100 µM (inactive).
For `C1OC1CN1CCN(CC2CO2)CC1` (configuration not stated), the GI50 in the assay with HT-29 is > 100 µM (inactive); in the assay on NCI-H460, 6.53 µM (inactive); with DLD-1, > 100 µM (inactive); in the assay on CCRF-CEM, 2.49 µM (inactive); with OVCAR-4, > 100 µM (inactive); in the assay with OVCAR-5, > 100 µM (inactive). The GI50 was 12.4 µM (inactive) in the assay with ACHN; 52.5 µM (inactive) in the assay with K562; > 100 µM (inactive) with SW-620; > 100 µM (inactive) in the assay with TK-10; > 66.8 µM (inactive) with RPMI-8226; > 100 µM (inactive) in the assay with A498. For the same molecule, the GI50 in the assay with HOP-92 is 80.9 µM (inactive); with EKVX, > 100 µM (inactive); with UO-31, 97.5 µM (inactive); in the assay on HCT-15 it was > 100 µM; in the assay with U-251 it was 45.4 µM (inactive); in the assay on SK-MEL-2, > 100 µM (inactive).
On to `O=C1NC2=C(CCCCC/C2=N\O)C12CCCCCC2`, for which the GI50 in the assay with HT-29, in the assay on NCI-H460, in the assay with DLD-1, in the assay on CCRF-CEM, in the assay on OVCAR-4 and in the assay with OVCAR-5 was > 100 µM (inactive) in each case. Also, the GI50 with ACHN, with K562, in the assay on SW-620, in the assay on TK-10, in the assay with RPMI-8226 and in the assay with A498 was > 100 µM (inactive) throughout. Also, the GI50 in the assay on HOP-92 is > 100 µM (inactive); with EKVX, > 100 µM (inactive); with UO-31, > 100 µM (inactive); with HCT-15, > 100 µM; in the assay with U-251, > 100 µM (inactive); in the assay on SK-MEL-2, > 100 µM (inactive).

The values are drawn from ChEMBL document CHEMBL1201862, “PubChem BioAssay data set” (2004).
